Laboratory results from article PMC8319603, “Developing C2-Aroyl Indoles as Novel Inhibitors of IDO1 and Understanding Their Mechanism of Inhibition via Mass Spectroscopy, QM/MM Calculations and Molecular Dynamics Simulation” (Frontiers in Chemistry, 2021).
Several values for one entry are separate records, joined by “and”; a condition that tells them apart may be missing. Equal entries are not always repeated.

Experiments:
[1] = Log D determination (octanol/buffer); format: physicochemical; details: phosphate buffer at pH 7.4
From the text: (§1) For the DMPK studies of the compound 8a-d we used rat as well as human plasmas. Rat plasma was purchased from Hylasco Biotechnology Pvt. Ltd.™ Hyderabad, India. We have not performed any in vivo experiments for this manuscript neither for animals nor for humans. […] Also please note the blood plasma was obtained from the blood of Dr Srinivas R Maddi, who donated it and is the co-author of this article. The DMPK studies were supplemented by kinetic solubility, Log p and Log D determinations, PAMPA permeability, Metabolic and Plasma stability in rat and human, and finally the plasma folding in rat and human. A thorough discussion of each step is mentioned in the supplementary information.
20 µL of IDO1/TDO2 protein (1µg/ml concentration) was added and incubates for 10 min. After that 20 µL of 2 mM L-tryptophan was added and then treated with different test compounds concentration (10 µM, 5 µM, 1 µM, 500 nM, 250 nM). The plate was then sealed well for 2hr incubation process at 37°C. […] The 100 µL of supernatant was transferred in fresh 96 well plate and treated with 100 µL of freshly prepared 2% Ehlrich reagent which was then analyzed by absorbance plate reader at 492 nm to measure the extent of kynurenine formation. […] The IC50 values were calculated in triplicate by using GraphPadPrism Software (GraphPadPrism. Version 5.01 program).22, 23 […]
Log P determination: The partition coefficient was determined by adding compounds to 2 mL deep well plate containing Octanol/water mixture and vortexed the plate for 2 hours at 1200 rpm on a plate shaker. […] Octanol and buffer layers were analysed by HPLC -UV by adjusting the needle height for each Octanol and buffer and the amount of compound distributed i nto each phase was calculated
Log D determination: The distribution coefficient was determined by adding compounds to 2 mL deep well plate containing Octanol/Buffer mixture and vortexed the plate for 2 hours at 1200 rpm on a plate shaker. […]
adjusting the needle height for each Octanol and buffer and the amount of compound distributed into each phase was calculated. […]

[2] = molecular target: T1, hIDO1 (ferric-IDO1 and deoxy ferrous-IDO1) (Homo sapiens, UniProt P14902); test: UV-Vis absorption study of ligand binding to IDO1 (Soret band); details: ligand 25 µM, IDO1 1 µM, pH 6.5; 414 nm without ligand
T1 construct: purchased Biovision P1096
T1 sequence (P14902 whole entry): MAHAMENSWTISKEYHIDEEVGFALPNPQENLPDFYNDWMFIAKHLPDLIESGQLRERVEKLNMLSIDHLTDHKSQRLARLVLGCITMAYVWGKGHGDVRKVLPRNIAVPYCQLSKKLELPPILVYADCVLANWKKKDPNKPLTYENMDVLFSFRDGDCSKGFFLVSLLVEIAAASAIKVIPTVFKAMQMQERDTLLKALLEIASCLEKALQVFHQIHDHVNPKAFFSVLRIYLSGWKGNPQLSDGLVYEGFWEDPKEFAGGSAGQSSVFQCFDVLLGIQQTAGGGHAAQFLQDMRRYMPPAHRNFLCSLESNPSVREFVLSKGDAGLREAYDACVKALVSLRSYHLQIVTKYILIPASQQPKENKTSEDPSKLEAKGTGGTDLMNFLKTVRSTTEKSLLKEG
Procedure: All the measurements of binding of compound and enzyme were recorded at room temperature using an Agilent Cary 8454 UV-Vis diode array spectrophotometer with 1 cm light path. The experiments were performed in 50 mM potassium phosphate buffer pH- 6.5 with IDO1 protein concentration of 1 µM and compound concentration of 25 µM was incubate for 3 h at 37°C. The deoxy-form of protein was prepared by pre-purged with nitrogen gas and adding […] (∼5 fold excess) in protein with potassium phosphate system.

[3] = Stability in human plasma; format: in vitro ADME
From the text: as §1, with “information. […]” for “information.”
Stability in rat and human plasma: Plasma stability is defined as the percentage of parent compound lost over time. The frozen plasma was thawed at room temperature and centrifuged at 1400 rpm 4 ℃, for 15 minutes. Approximately 90% of the clear supernatant fraction was transferred to a separate tube and was used for assay. The incubation mixtures consisted of human and rat palsma and compound (1 μM) or positive control (propanthelin, 1 μM) and incubated for 120 min at 37℃ in shaker with 500 rpm. All reactions were terminated using 200 μL of ice-cold acetonitrile containing internal standard (150 ng/mL of telmisartan) at 0, 15, 30, 60 and 120 min and centrifuged at 4000 rpm (Eppendorf, Germany) for 20min. The supernatants thus obtained were analyzed on LC-MS/MS to monitor the disappearance of compound. […]

[4] = Plasma protein binding in rat plasma (rapid equilibrium dialysis); format: in vitro ADME; details: for Rat plasma protein binding %Ge bound / Rat plasma protein binding %Ge free: 10 μM; for fraction unbound at 10 μM: pH 7.4
From the text: as §1, with “information. […]” for “information.”
Plasma protein binding in rat and human plasma: To evaluate the ability of compound to bind the plasma proteins, the most common approach of plasma protein binding using rapid equilibrium dialysis device ( RED inserts) used. Compounds were tested at a final concentration of 10 μM in mouse, rat and human plasma. An aliquot of 500 μL plasma containing compound 3k was added in first half (plasma side) of the well of RED device. An aliquot of 300 μL of 100 mM sodium phosphate buffer pH 7.4 was added in the second half (buffer side) of the Insert. The plate containing plasma and […]

[5] = Metabolic stability in dog liver microsomes; format: in vitro ADME
[6] = Metabolic stability in monkey liver microsomes; format: in vitro ADME

logD [1] | Soret band of deoxy ferrous-IDO1 in presence of ligand [2] | Human plasma stability %Ge remaining after 120 min [3] [%] | Rat plasma protein binding %Ge bound [4] [%] | Rat plasma protein binding %Ge free [4] [%] | fraction unbound at 10 μM [4] | Dog liver microsomal stability % QH (hepatic extraction ratio) [5] [%] | Monkey liver microsomal stability % QH (hepatic extraction ratio) [6] [%] | Structure (SMILES)
1.32 | 407 nm and 430 nm | 84.5 | 97.3 | 2.7 | 0.027 | 69 | 97 | CC(=O)NCCc1c(C(=O)c2cc(C(F)(F)F)cc(C(F)(F)F)c2)[nH]c2ccccc12 [8a]
1.51 | 407 nm | 85.0 | 82.1 | 17.9 | 0.179 | 39 | 74 | CC(=O)NCCc1c(C(=O)c2ccc([N+](=O)[O-])cc2)[nH]c2ccccc12 [8d]
2.95 | 407 nm | 108.3 | 95.9 | 4.1 | 0.041 | 67 | 96 | COC(=O)NCCc1c(C(=O)c2ccccc2)[nH]c2ccccc12 [8e]
